The nature of the data set: Spreading test: drop on a polybutene surface in a Petri dish, compared with water. It is filed as physicochemical. The note with it: water containing 0.1% by weight of spreading agent; drop of 50μ on polybutene; pure water about 10 mm. The source says:
Compositions of the present invention have the advantage that they spread more efficiently and completely on polymeric conveyor surfaces than previously known conveyor lubricant compositions containing polydimethylsiloxane. […] When the lubricant is applied to a polymeric conveyor surface, the conveyor surface soon becomes very hydrophobic due to the adsorption and/or absorption of the silicone oil lubricant on the surface. The lubricant persists on the surface so that it presents a very hydrophobic surface to subsequently applied lubricant. The lubricants of the present invention readily wet the oil soaked silicone lubricant surface as evidenced by the lubricants rapidly spreading on the surface without beading. […]
A useful test to determine the spreading ratios of the lubricants of the present invention is to compare spreading on a standard polybutene surface in a Petri dish. In this test, a drop of 50μ of the composition to be measured is applied to a polybutene surface in a Petri dish and after 30 seconds the linear movement of the liquid is measured by taking the average diameter of the substantially circular liquid. Pure water has been measured to have a diameter of about 10 mm. […]
The compositions prepared above were diluted at a ratio of 1 part lubricant to 200 parts water. […] The spreading ratio of the lubricant was measured using the test as described above. […]

The record followed here is patent publication US20060030497A1, “Conveyor track or container lubricant compositions” (priority 2004, published 2006).

Turning to “heptamethyl trisiloxane with a hydroxy terminated polyethyleneoxide pendant group [Silwet® L-7608]”, the “movement of the drop (average diameter of the liquid) after 30 seconds” value was 110 mm.
